US10364222B2, “Cyclic amine derivative and medical use thereof” (Toray Industries, Inc., priority 2016, dated 2019)

target: T1, ligand-binding domain of RORγ (RORγ-LBD) (Homo sapiens, UniProt P51449); test: Inhibitory effect on RORγ-coactivator binding (LanthaScreen TR-FRET RORγ Coactivator Assay); conditions: at 33 μmol/L of the test compound; read-out: RORγ-coactivator binding inhibition rate (%)
T1 construct: purchased Invitrogen
T1 sequence (P51449 269-508 limits assumed): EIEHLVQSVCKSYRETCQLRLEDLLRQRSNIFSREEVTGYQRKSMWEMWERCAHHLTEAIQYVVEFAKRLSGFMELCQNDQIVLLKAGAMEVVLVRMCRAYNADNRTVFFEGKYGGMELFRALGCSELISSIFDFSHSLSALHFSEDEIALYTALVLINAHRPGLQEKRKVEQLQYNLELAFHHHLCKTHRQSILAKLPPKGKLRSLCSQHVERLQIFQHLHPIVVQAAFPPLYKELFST
Description: The inhibitory effect of the cyclic amine derivative (I) or a pharmacologically acceptable salt thereof on the binding between a ligand-binding domain of RORγ (hereinafter referred to as RORγ-LBD) and a coactivator was evaluated using Invitrogen's LanthaScreen™TR-FRET Retinoid-Related Orphan Receptor (ROR) gamma Coactivator Assay kit utilizing time-resolved fluorescence energy transfer (TR-FRET).
The test compound was dissolved in DMSO and diluted with TR-FRET Coregulator Buffer D (Invitrogen) containing 5 mmol/L of DTT to have a final DMSO concentration of 1% before use. To each well of a 384-well black plate (Corning Inc.), 4 nmol/L of GST-fused RORγ-LBD (Invitrogen) diluted with the buffer mentioned above and the test compound were added. A well without addition of the test compound and without addition of GST-fused RORγ-LBD (background) and a well without addition of the test compound and with addition of GST-fused RORγ-LBD (control) were prepared. Next, 150 nmol/L of fluorescein-labeled TRAP220/DRIP-2 (Invitrogen) diluted with the buffer mentioned above and 32 nmol/L of terbium-labeled anti-GST antibody (Invitrogen) were added to each well. After incubating the plate at room temperature for 16 to 24 hours, the fluorescence at 495 nm and 520 nm when excited at 320 nm was measured for each well and the ratio (fluorescence value at 520 nm/fluorescence value at 495 nm) was calculated.
The fold change with addition of the test compound (ratio with addition of the test compound/ratio of the background), the fold change of the control (ratio of the control/ratio of the background), and the fold change of the background (ratio of the background/ratio of the background) were calculated, and then the inhibition rate of binding between RORγ-LBD and a coactivator (hereinafter referred to as RORγ-coactivator binding inhibition rate) (%) was calculated from Formula 1: RORγ-coactivator binding inhibition rate(%)=(1−((Fold change with addition of the test compound)−(Fold change of the background))/((Fold change of the control)−(Fold change of the background)))×100 Formula 1

Row | inhibition at 33 µM [%] | Compound
1 | 104 | Cc1cc(C)n(CC(=O)N2CCCCC2C(=O)Nc2ccc(-c3ccccc3OC(F)(F)F)c(Cl)c2)n1 (stereo not shown) [Example 55, 1-(2-(3,5-dimethyl-1H-pyrazol-1-yl)acetyl)-N-(2-chloro-2′-(trifluoromethoxy)-[1,1′-biphenyl]-4-yl)piperidine-2-carboxamide]
2 | 98.7 | CS(=O)(=O)CCC(=O)N1CCCCC1C(=O)Nc1ccc(-c2ccccc2OC(F)(F)F)c(Cl)c1 (stereo not shown) [Example 40, N-(2-chloro-2′-(trifluoromethoxy)-[1,1′-biphenyl]-4-yl)-1-(3-(methylsulfonyl)propanoyl)piperidine-2-carboxamide]
3 | 93.4 | COC(=O)N1CCCCC1C(=O)Nc1ccc(-c2ccccc2OC(F)(F)F)c(Cl)c1 (stereo not shown) [Example 19, methyl 2-((2-chloro-2′-(trifluoromethoxy)-[1,1′-biphenyl]-4-yl)carbamoyl)piperidine-1-carboxylate]

test system: IL-17 production in mouse splenocytes; test: Suppressive effect on IL-17 production by IL-23 stimulation in mouse splenocytes; format: cell-based; conditions: Splenocyte, 72 h, at 5 μmol/L of the test compound, 10 ng/mL human IL-23, 3 days, read-out: IL-17 production inhibition rate (%)
Description: Using mouse splenocytes, the suppressive effect of the cyclic amine derivative (I) or a pharmacologically acceptable salt thereof on IL-17 production by IL-23 stimulation was evaluated by a partially modified method mentioned in The Journal of Biological Chemistry, 2003, Vol. 278, No. 3, p. 1910-1914.
A single cell suspension was prepared from the spleen of C57BL/6J mice (male, 7 to 23 weeks old) (Charles River Laboratories Japan, Inc.) and splenocytes were prepared using Histopaque-1083 (Sigma-Aldrich Japan). The culture medium was used by adding 10% FBS (Gibco), 50 U/mL of penicillin 50 μg/mL of streptomycin (Gibco), 50 μmol/L of 2-mercaptoethanol (Gibco), and 100 U/mL of human IL-2 (Cell Science & Technology Institute, Inc.) to RPMI1640 medium (Gibco). The test compound was dissolved in DMSO and then diluted with the culture medium to have a final concentration of DMSO of 0.1% before use. Splenocytes (3×10^5 cells/well) prepared in the culture medium were seeded in wells of a 96-well flat-bottom plate (Corning Incorporated), the test compound and 10 ng/mL of human IL-23 (R & D systems, Inc.) were added thereto, and the cells were cultured at 37° C. under 5% CO2 for 3 days. A well without addition of human IL-23 and without addition of the test compound and a well with addition of human IL-23 and without addition of the test compound were prepared. After completion of the culture, the culture supernatant was collected and the IL-17 production amount in the supernatant was determined by ELISA method (R & D systems, Inc.).
The IL-17 production inhibition rate (%) was calculated from Formula 2. IL-17 production inhibition rate(%)=(1−((IL-17 production amount with addition of IL-23 and with addition of the test compound)−(IL-17 production amount without addition of IL-23 and without addition of the test compound))/((IL-17 production amount with addition of IL-23 and without addition of the test compound)−(IL-17 production amount without addition of IL-23 and without addition of the test compound)))×100 Formula 2

Row | Compound | inhibition at 5 µM [%]
4 | Cc1cc(C)n(CC(=O)N2CCCCC2C(=O)Nc2ccc(-c3ccccc3OC(F)(F)F)c(Cl)c2)n1 (stereo not shown) [Example 55, 1-(2-(3,5-dimethyl-1H-pyrazol-1-yl)acetyl)-N-(2-chloro-2′-(trifluoromethoxy)-[1,1′-biphenyl]-4-yl)piperidine-2-carboxamide] | 99.7
5 | CS(=O)(=O)CCC(=O)N1CCCCC1C(=O)Nc1ccc(-c2ccccc2OC(F)(F)F)c(Cl)c1 (stereo not shown) [Example 40, N-(2-chloro-2′-(trifluoromethoxy)-[1,1′-biphenyl]-4-yl)-1-(3-(methylsulfonyl)propanoyl)piperidine-2-carboxamide] | 98.2
6 | COC(=O)N1CCCCC1C(=O)Nc1ccc(-c2ccccc2OC(F)(F)F)c(Cl)c1 (stereo not shown) [Example 19, methyl 2-((2-chloro-2′-(trifluoromethoxy)-[1,1′-biphenyl]-4-yl)carbamoyl)piperidine-1-carboxylate] | 99.8
7 | O=C(Nc1ccc(-c2ccccc2OC(F)(F)F)c(Cl)c1)[C@H]1CCCCN1C(=O)Cn1cnnc1 [Example 62, (R)-1-(2-(4H-1,2,4-triazol-4-yl)acetyl)-N-(2-chloro-2′-(trifluoromethoxy)-[1,1′-biphenyl]-4-yl)piperidine-2-carboxamide] | 100
8 | O=C(Nc1ccc(-c2ccccc2OC(F)(F)F)c(Cl)c1)C1CCCCN1C(=O)C(F)F (stereo not shown) [Example 7, N-(2-chloro-2′-(trifluoromethoxy)-[1,1′-biphenyl]-4-yl)-1-(2,2-difluoroacetyl)piperidine-2-carboxamide] | 99
9 | NCCC(=O)N1CCCC[C@@H]1C(=O)Nc1ccc(-c2ccccc2OC(F)(F)F)c(Cl)c1 [Example 38, (R)-1-(3-aminopropanoyl)-N-(2-chloro-2′-(trifluoromethoxy)-[1,1′-biphenyl]-4-yl)piperidine-2-carboxamide] | 99
10 | CC(=O)NCCC(=O)N1CCCCC1C(=O)Nc1ccc(-c2ccccc2OC(F)(F)F)c(Cl)c1 (stereo not shown) [Example 31, 1-(3-acetamidepropanoyl)-N-(2-chloro-2′-(trifluoromethoxy)-[1,1′-biphenyl]-4-yl)piperidine-2-carboxamide] | 99.1
11 | CS(=O)(=O)N1CC[C@H](O)C[C@@H]1C(=O)Nc1ccc(-c2ccccc2OC(F)(F)F)c(Cl)c1 [Example 26, (2R,4S)—N-(2-chloro-2′-(trifluoromethoxy)-[1,1′-biphenyl]-4-yl)-4-hydroxy-1-(methylsulfonyl)piperidine-2-carboxamide] | 96.4
12 | CC(=O)N(C)CC(=O)N1CCCCC1C(=O)Nc1ccc(-c2ccccc2OC(F)(F)F)c(Cl)c1 (stereo not shown) [Example 12, N-(2-chloro-2′-(trifluoromethoxy)-[1,1′-biphenyl]-4-yl)-1-(2-(N-methylacetamide)acetyl)piperidine-2-carboxamide] | 96.1
13 | CNCC(=O)N1CCCCC1C(=O)Nc1ccc(-c2ccccc2OC(F)(F)F)c(Cl)c1 (stereo not shown) [Example 11, N-(2-chloro-2′-(trifluoromethoxy)-[1,1′-biphenyl]-4-yl)-1-(2-(methylamino)acetyl)piperidine-2-carboxamide] | 94.1
14 | NCCC(=O)N1CCCCC1C(=O)Nc1ccc(-c2ccccc2OC(F)(F)F)c(Cl)c1 (stereo not shown) [Example 30, 1-(3-aminopropanoyl)-N-(2-chloro-2′-(trifluoromethoxy)-[1,1′-biphenyl]-4-yl)piperidine-2-carboxamide] | 99.8
15 | CC(=O)N1CC[C@H](O)C[C@@H]1C(=O)Nc1ccc(-c2ccccc2OC(F)(F)F)c(Cl)c1 [Example 24, (2R,4S)-1-acetyl-N-(2-chloro-2′-(trifluoromethoxy)-[1,1′-biphenyl]-4-yl)-4-hydroxypiperidine-2-carboxamide] | 95.7
16 | O=C(Nc1ccc(-c2ccccc2OC(F)(F)F)c(Cl)c1)[C@H]1CCCCN1C(=O)Cn1cncn1 [Example 63, (R)-1-(2-(1H-1,2,4-triazol-1-yl)acetyl)-N-(2-chloro-2′-(trifluoromethoxy)-[1,1′-biphenyl]-4-yl)piperidine-2-carboxamide] | 99.9
17 | CN(C)CC(=O)N1CCCCC1C(=O)Nc1ccc(-c2ccccc2OC(F)(F)F)c(Cl)c1 (stereo not shown) [Example 6, N-(2-chloro-2′-(trifluoromethoxy)-[1,1′-biphenyl]-4-yl)-1-(2-(dimethylamino)acetyl)piperidine-2-carboxamide] | 91.6
18 | O=C(O)CCCC(=O)N1CCCC[C@@H]1C(=O)Nc1ccc(-c2ccccc2OC(F)(F)F)c(Cl)c1 [Example 70, (R)-5-(2-((2-chloro-2′-(trifluoromethoxy)-[1,1′-biphenyl]-4-yl)carbamoyl)piperidin-1-yl)-5-oxopentanoic acid] | 99.7
19 | CNCCC(=O)N1CCCC[C@@H]1C(=O)Nc1ccc(-c2ccccc2OC(F)(F)F)c(Cl)c1 [Example 41, (R)-N-(2-chloro-2′-(trifluoromethoxy)-[1,1′-biphenyl]-4-yl)-1-(3-(methylamino)propanoyl)piperidine-2-carboxamide] | 99.1
20 | CC(=O)NCC(=O)N1CCCCC1C(=O)Nc1ccc(-c2ccccc2OC(F)(F)F)c(Cl)c1 (stereo not shown) [Example 9, 1-(2-acetamideacetyl)-N-(2-chloro-2′-(trifluoromethoxy)-[1,1′-biphenyl]-4-yl)piperidine-2-carboxamide] | 94.6
21 | CN(C)CCC(=O)N1CCCC[C@@H]1C(=O)Nc1ccc(-c2ccccc2OC(F)(F)F)c(Cl)c1 [Example 68, (R)-N-(2-chloro-2′-(trifluoromethoxy)-[1,1′-biphenyl]-4-yl)-1-(3-(dimethylamino)propanoyl)piperidine-2-carboxamide] | 99.4
22 | CC(=O)N(C)CCC(=O)N1CCCCC1C(=O)Nc1ccc(-c2ccccc2OC(F)(F)F)c(Cl)c1 (stereo not shown) [Example 35, N-(2-chloro-2′-(trifluoromethoxy)-[1,1′-biphenyl]-4-yl)-1-(3-(N-methylacetamide)propanoyl)piperidine-2-carboxamide] | 94.9
23 | CNCCC(=O)N1CCCCC1C(=O)Nc1ccc(-c2ccccc2OC(F)(F)F)c(Cl)c1 (stereo not shown) [Example 34, N-(2-chloro-2′-(trifluoromethoxy)-[1,1′-biphenyl]-4-yl)-1-(3-(methylamino)propanoyl)piperidine-2-carboxamide] | 100
24 | CN(C)CCC(=O)N1CCCCC1C(=O)Nc1ccc(-c2ccccc2OC(F)(F)F)c(Cl)c1 (stereo not shown) [Example 33, N-(2-chloro-2′-(trifluoromethoxy)-[1,1′-biphenyl]-4-yl)-1-(3-(dimethylamino)propanoyl)piperidine-2-carboxamide] | 98.3
25 | CC(=O)N1CC[C@@H](O)C[C@@H]1C(=O)Nc1ccc(-c2ccccc2OC(F)(F)F)c(Cl)c1 [Example 27, (2R,4R)-1-acetyl-N-(2-chloro-2′-(trifluoromethoxy)-[1,1′-biphenyl]-4-yl)-4-hydroxypiperidine-2-carboxamide] | 97.4
